Where a name gives a salt, the structure may show the parent alone.

Series [1] relates to allergic rabbits. Nature of the series: Adenosine provocation test after aerosol L-97-1 in allergic rabbits (PC50 of adenosine, lung compliance). The format is in vivo, rabbit. To be noted: controls without L-97-1, aerosolized adenosine, n=9.
For series [2] the following is noted: cited from earlier work.
Series [3] concerns allergic rabbits. To be noted: baseline BHR, aerosolized histamine, n=5.
Experimental: All animals were anesthetized and intubated. All treatments were administered via an endotracheal tube with an ultrasonic nebulizer that produces aerosol droplets (80% are less than 5 μm). Dynamic compliance (Cdyn) was calculated from tidal volume and the difference in transpulmonary pressure (PTP) at zero flow (V). Total lung resistance (RT) was calculated as the ratio of PTP and V at […] lung volumes; these measurements are made automatically with the Buxco Respiratory Analyzer.

Take `Nc1ncnc2c1ncn2[C@@H]1O[C@H](CO)[C@@H](O)[C@H]1O` [adenosine]: in series [1], the “PC50 for adenosine (concentration of adenosine to reduce lung compliance by 50%)” value is 3.24 ± 1.79 mg/mL.

For the molecule `OCc1cc(C(O)CNCCCCCCOCCCCc2ccccc2)ccc1O` (stereo not drawn) [salmeterol xinafoate, salmeterol 1-hydroxy-2-napthoic acid salt], in series [2], the Solubility in water entry was “sparingly soluble in water”.

Consider `NCCc1c[nH]cn1` [histamine], for which the “PC50 for histamine (concentration of histamine to reduce lung compliance by 50%)” value in series [3] stood at 0.77 ± 0.28 mg/mL.

The record behind these values is patent publication US20070219223A1, “Compositions and methods for treating respiratory disorders” (Endacea, Inc., priority 2006, published 2007).
